Assay results published in the supplement of paper PMC8617591.

Key:
[1] = system: Mycobacterium tuberculosis Erdman (autoluminescent); experiment: total FIC50 (Loewe) at 50% inhibition, three-drug combination (log2); higher = more antagonistic
Procedure: (§1)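 DiaMOND equipotent three-drug combination dose responses (10 doses, 1.5- or 2-fold spacing, centred on IC90) against autoluminescent M. tuberculosis Erdman in 8 in vitro models. Read-out is OD600, or luminescence for the intracellular and dormancy models, normalised to untreated wells. Hill-fit Einf, AUC25 and GRinf are potency metrics; FIC50 and FIC90 are total Loewe fractional inhibitory concentrations as log2 (negative = synergy).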

[2] = system: Mycobacterium tuberculosis Erdman (autoluminescent); experiment: total FIC90 (Loewe) at 90% inhibition, three-drug combination (log2); higher = more antagonistic
Procedure: as §1

[3] = system: Mycobacterium tuberculosis Erdman (autoluminescent); experiment: Einf, fitted maximum growth inhibition of three-drug combination (fraction); higher = stronger maximal inhibition
Procedure: as §1

[4] = system: Mycobacterium tuberculosis Erdman (autoluminescent); experiment: AUC25, normalised area under dose response up to IC25 (three-drug combination) (fraction (0-1)); higher = more potent at low dose
Procedure: as §1

[5] = system: Mycobacterium tuberculosis Erdman (autoluminescent); experiment: GRinf, maximum normalised growth rate inhibition (three-drug combination) (unitless (-1 to 1)); higher = less effect (negative = killing)
Procedure: as §1

COc1nc2ccc(Br)cc2cc1[C@@H](c1ccccc1)[C@@](O)(CCN(C)C)c1cccc2ccccc12 [bedaquiline] + CC(C)/N=c1\cc2n(-c3ccc(Cl)cc3)c3ccccc3nc-2cc1Nc1ccc(Cl)cc1 [clofazimine] + CO[C@H]1/C=C/O[C@@]2(C)Oc3c(C)c(O)c4c(O)c(c(/C=N/N5CCN(C)CC5)c(O)c4c3C2=O)NC(=O)/C(C)=C\C=C\[C@H](C)[C@H](O)[C@@H](C)[C@@H](O)[C@@H](C)[C@H](OC(C)=O)[C@@H]1C [rifampicin]
Details	AUC25, [4]	Einf, [3]	GRinf, [5]	total FIC50, [1]	total FIC90, [2]
in vitro model: acidic pH 5.7, time point: constant (~7 days, model-specific)	0.0895	0.926	-0.41	0.927	–
in vitro model: acidic pH 5.7, time point: terminal (~4-5 doublings, model-specific)	0.0837	0.992	-0.332	0.816	0.52
in vitro model: intracellular J774, time point: constant = terminal	–	0.965	-0.213	–	0.287

Details	AUC25, [4]	Einf, [3]	GRinf, [5]	total FIC50, [1]	total FIC90, [2]
in vitro model: butyrate, time point: constant (~7 days, model-specific)	0.0821	0.954	-0.113	0.164	-0.692
in vitro model: butyrate, time point: terminal (~4-5 doublings, model-specific)	0.0695	0.983	-0.115	0.163	-0.325
in vitro model: cholesterol 0.05 mM, time point: constant (~7 days, model-specific)	0.0702	0.714	-0.146	-0.919	–
in vitro model: cholesterol 0.05 mM, time point: terminal (~4-5 doublings, model-specific)	0.0755	0.925	-0.226	0.904	-0.861
in vitro model: cholesterol-high 0.2 mM, time point: constant (~7 days, model-specific)	0.0563	0.933	-0.277	-0.143	-0.728
in vitro model: cholesterol-high 0.2 mM, time point: terminal (~4-5 doublings, model-specific)	0.0498	0.999	-0.582	0.757	-0.216
in vitro model: dormancy (butyrate + nitrate, low O2), time point: constant (~7 days, model-specific)	0.0659	0.906	0.222	-0.0697	-0.643
in vitro model: dormancy (butyrate + nitrate, low O2), time point: terminal (~4-5 doublings, model-specific)	0.0651	0.994	-0.191	-0.41	-0.344
in vitro model: standard 7H9 glycerol, time point: constant = terminal	0.0883	0.959	-0.1	-0.172	-1.01
in vitro model: valerate, time point: constant (~7 days, model-specific)	0.0872	0.88	-0.0295	0.776	–
in vitro model: valerate, time point: terminal (~4-5 doublings, model-specific)	0.0594	0.936	-0.0101	0.627	0.54

CC[C@@H](CO)NCCN[C@@H](CC)CO [ethambutol] + O=[N+]([O-])c1cn2c(n1)OC[C@@H](OCc1ccc(OC(F)(F)F)cc1)C2 [pretomanid] + CO[C@H]1/C=C/O[C@@]2(C)Oc3c(C)c(O)c4c(O)c(c(/C=N/N5CCN(C6CCCC6)CC5)c(O)c4c3C2=O)NC(=O)/C(C)=C\C=C\[C@H](C)[C@H](O)[C@@H](C)[C@@H](O)[C@@H](C)[C@H](OC(C)=O)[C@@H]1C [rifapentine]
Details	AUC25, [4]	Einf, [3]	GRinf, [5]	total FIC50, [1]	total FIC90, [2]
in vitro model: acidic pH 5.7, time point: constant (~7 days, model-specific)	0.109	0.881	-0.167	-0.27	–
in vitro model: acidic pH 5.7, time point: terminal (~4-5 doublings, model-specific)	0.0593	0.965	-0.136	-0.17	-0.213
in vitro model: intracellular J774, time point: constant = terminal	–	0.983	-0.509	–	-1.96

Details	AUC25, [4]	Einf, [3]	GRinf, [5]	total FIC50, [1]	total FIC90, [2]
in vitro model: butyrate, time point: constant (~7 days, model-specific)	0.0719	0.917	0.00142	0.274	–
in vitro model: butyrate, time point: terminal (~4-5 doublings, model-specific)	0.0544	0.96	0.0016	0.212	-0.372
in vitro model: cholesterol 0.05 mM, time point: constant (~7 days, model-specific)	0.103	0.743	-0.355	0.946	–
in vitro model: cholesterol 0.05 mM, time point: terminal (~4-5 doublings, model-specific)	0.0797	0.923	-0.204	1.14	–
in vitro model: cholesterol-high 0.2 mM, time point: constant (~7 days, model-specific)	0.0331	0.825	-0.056	1.15	–
in vitro model: cholesterol-high 0.2 mM, time point: terminal (~4-5 doublings, model-specific)	0.0353	1	-0.701	1.34	1.42
in vitro model: dormancy (butyrate + nitrate, low O2), time point: constant (~7 days, model-specific)	0.115	0.832	0.245	0.472	–
in vitro model: dormancy (butyrate + nitrate, low O2), time point: terminal (~4-5 doublings, model-specific)	0.0993	0.964	-0.137	0.154	0.383
in vitro model: standard 7H9 glycerol, time point: constant = terminal	0.0595	0.912	0.0905	0.054	–
in vitro model: valerate, time point: constant (~7 days, model-specific)	0.0932	0.882	-0.0094	0.185	–
in vitro model: valerate, time point: terminal (~4-5 doublings, model-specific)	0.0526	0.938	0.0245	0.593	0.229

COc1nc2ccc(Br)cc2cc1[C@@H](c1ccccc1)[C@@](O)(CCN(C)C)c1cccc2ccccc12 [bedaquiline] + CC[C@@H](CO)NCCN[C@@H](CC)CO [ethambutol] + CO[C@H]1/C=C/O[C@@]2(C)Oc3c(C)c(O)c4c(O)c(c(/C=N/N5CCN(C)CC5)c(O)c4c3C2=O)NC(=O)/C(C)=C\C=C\[C@H](C)[C@H](O)[C@@H](C)[C@@H](O)[C@@H](C)[C@H](OC(C)=O)[C@@H]1C [rifampicin]
Details	AUC25, [4]	Einf, [3]	GRinf, [5]	total FIC50, [1]	total FIC90, [2]
in vitro model: acidic pH 5.7, time point: constant (~7 days, model-specific)	0.101	0.925	-0.517	0.255	–
in vitro model: acidic pH 5.7, time point: terminal (~4-5 doublings, model-specific)	0.0469	0.975	-0.16	0.433	-0.353
in vitro model: intracellular J774, time point: constant = terminal	–	0.946	-0.188	–	-2.17

Details	AUC25, [4]	Einf, [3]	GRinf, [5]	total FIC50, [1]	total FIC90, [2]
in vitro model: butyrate, time point: constant (~7 days, model-specific)	0.0854	0.947	-0.116	0.298	–
in vitro model: butyrate, time point: terminal (~4-5 doublings, model-specific)	0.0653	0.977	-0.0944	0.293	-0.34
in vitro model: cholesterol 0.05 mM, time point: constant (~7 days, model-specific)	0.0934	0.696	-0.186	0.99	–
in vitro model: cholesterol 0.05 mM, time point: terminal (~4-5 doublings, model-specific)	0.0802	0.866	-0.177	0.757	–
in vitro model: cholesterol-high 0.2 mM, time point: constant (~7 days, model-specific)	0.0442	0.972	-0.609	0.869	–
in vitro model: cholesterol-high 0.2 mM, time point: terminal (~4-5 doublings, model-specific)	0.0471	0.999	-0.732	0.649	0.577
in vitro model: dormancy (butyrate + nitrate, low O2), time point: constant (~7 days, model-specific)	0.0847	0.848	0.506	0.302	–
in vitro model: dormancy (butyrate + nitrate, low O2), time point: terminal (~4-5 doublings, model-specific)	0.0367	0.985	-0.0366	0.467	-0.773
in vitro model: standard 7H9 glycerol, time point: constant = terminal	0.0718	0.936	-0.0564	0.162	–
in vitro model: valerate, time point: constant (~7 days, model-specific)	0.0696	0.904	-0.043	0.575	–
in vitro model: valerate, time point: terminal (~4-5 doublings, model-specific)	0.0304	0.944	-0.0659	0.707	-0.531

COc1nc2ccc(Br)cc2cc1[C@@H](c1ccccc1)[C@@](O)(CCN(C)C)c1cccc2ccccc12 [bedaquiline] + CO[C@H]1/C=C/O[C@@]2(C)Oc3c(C)c(O)c4c(O)c(c(/C=N/N5CCN(C6CCCC6)CC5)c(O)c4c3C2=O)NC(=O)/C(C)=C\C=C\[C@H](C)[C@H](O)[C@@H](C)[C@@H](O)[C@@H](C)[C@H](OC(C)=O)[C@@H]1C [rifapentine] + CO[C@H]1/C=C/O[C@@]2(C)Oc3c(C)c(O)c4c(O)c(c(/C=N/N5CCN(C)CC5)c(O)c4c3C2=O)NC(=O)/C(C)=C\C=C\[C@H](C)[C@H](O)[C@@H](C)[C@@H](O)[C@@H](C)[C@H](OC(C)=O)[C@@H]1C [rifampicin]
Details	AUC25, [4]	Einf, [3]	GRinf, [5]	total FIC50, [1]	total FIC90, [2]
in vitro model: acidic pH 5.7, time point: constant (~7 days, model-specific)	0.0935	0.893	-0.273	0.903	–
in vitro model: acidic pH 5.7, time point: terminal (~4-5 doublings, model-specific)	0.082	0.985	-0.265	0.765	0.574
in vitro model: intracellular J774, time point: constant = terminal	–	0.925	-0.129	–	0.499

Details	AUC25, [4]	Einf, [3]	GRinf, [5]	total FIC50, [1]	total FIC90, [2]
in vitro model: butyrate, time point: constant (~7 days, model-specific)	0.119	0.965	-0.195	0.199	-0.101
in vitro model: butyrate, time point: terminal (~4-5 doublings, model-specific)	0.102	0.987	-0.131	0.144	0.454
in vitro model: cholesterol 0.05 mM, time point: constant (~7 days, model-specific)	0.118	0.73	-0.233	0.198	–
in vitro model: cholesterol 0.05 mM, time point: terminal (~4-5 doublings, model-specific)	0.0915	0.927	-0.216	0.249	0.0937
in vitro model: cholesterol-high 0.2 mM, time point: constant (~7 days, model-specific)	0.0646	0.957	-0.49	0.444	-0.0134
in vitro model: cholesterol-high 0.2 mM, time point: terminal (~4-5 doublings, model-specific)	0.0574	0.998	-0.604	0.544	0.3
in vitro model: dormancy (butyrate + nitrate, low O2), time point: constant (~7 days, model-specific)	0.0847	0.905	0.174	0.141	0.723
in vitro model: dormancy (butyrate + nitrate, low O2), time point: terminal (~4-5 doublings, model-specific)	0.0726	0.982	-0.165	0.273	0.653
in vitro model: standard 7H9 glycerol, time point: constant = terminal	0.0706	0.924	-0.0268	0.258	0.35
in vitro model: valerate, time point: constant (~7 days, model-specific)	0.046	0.873	-0.0628	0.679	–
in vitro model: valerate, time point: terminal (~4-5 doublings, model-specific)	0.028	0.951	-0.0371	0.579	0.302
